Where “and” joins values, the source holds several entries; their conditions need not be identical. Equal values may be shown once. Read-outs that look alike come from different tables or passages of the source.
What was measured:
[1] = Physiological monitoring (SaO2, heart rate, respiratory rate, ECG) during MRI, pre versus post contrast agent; format: in vivo; conditions: for changes in SaO2, HR, RR or ECG parameters (ST, T wave morphology, rhythm), pre versus post contrast agent: up to 2 hours after contrast agent
Source text: Wild type C57BL/6 mice 6-10 months of age (25-30 gr) were used in all experiments. Since variations in physiological processes can influence the MRI signal in the brain, various monitoring devices were used while the mouse was being imaged. Heart rate, respiratory rate and SaO2 were continuously monitored using pulse oximetry (Model V33304, Sergivet). The probe was attached to the lower abdomen. A rectal temperature was continuously monitored with a thermestor (YSI Precision Thermometer 4000A).
ECG was monitored in a physiogard (SM 785, Brucker) by using subcutaneous silver electrodes from the front limbs and the reference electrode placed at the right posterior limb.
Comparisons were made within the groups pre with post contrast agent up to 2 hours after IV (feridex or gadodiamide) or IP GD (10 mmol/kg) (Table 1).
Thus, 10 mmol/kg was identified as the optimum dose of GD, and this dose was used for all further experiment unless otherwise indicated. […] Since the goal is to keep scan time as short as possible, in order to minimize morbidity and mortality, a 45 minutes time point was identified as the optimum post-contrast time interval.

[2] = humans; cited from earlier work
[3] = rats, IV; cited from earlier work
[4] = mice, IV; cited from earlier work
[5] = IP 15 mmol/kg, individual mice with toxicity, listed as GD

With CNC(=O)CN(CCN(CCN(CC(=O)[O-])CC(=O)NC)CC(=O)[O-])CC(=O)[O-].[Gd+3] [gadodiamide] as the molecule, how does the “changes in SaO2, HR, RR or ECG parameters (ST, T wave morphology, rhythm), pre versus post contrast agent” value ([1]; IP 10 mmol/kg) read?
Its value is “No significant changes”.

And the “RR (respiratory rate)” value [1, 5]?
The value was 100 and 110.

And the SaO2 [1, 5]?
Its SaO2 is 72 and 65.

What about the “toxicity (significant changes in vital signs)” value ([1]; IP 15 mmol/kg, two mice, procedure aborted) of the same molecule?
Its value is “caused toxicity”.

And the “changes in SaO2, HR, RR or ECG parameters (ST, T wave morphology, rhythm), pre versus post contrast agent” value ([1]; IV)?
Its value is “No significant changes”.

What about the elimination half-life [2] of the same molecule?
The elimination half-life was “approximately 1.5 hours”.

What about the elimination half-life [3] of the same molecule?
Its elimination half-life is “about 20 minutes”.

What about the elimination half-life [4] of the same molecule?
Its elimination half-life is 5 to 6 min.

— patent US20070264200A1, “Mouse MRI for drug screening” (priority 2005, published 2007)
